What follows are compounds tested on human MDR1 P-gp (assay: Assay D: efflux in MDCK cells transfected with the human MDR1 gene). Settings: dog; MDCK-MDR1 monolayers, pH 7.4, 37° C.; read-out: MDCK efflux ratio (BA/AB).
Format: in vitro ADME, canine

Row | Compound | efflux ratio
1 | CCN(C(=O)c1ccccc1-n1nccn1)[C@@H](C)CNc1ncc(C(F)(F)F)cn1 [Example 1] | < 3
2 | CCN(C(=O)c1nc(C)ccc1-n1nccn1)[C@@H](C)CNc1ncc(C(F)(F)F)cn1 [Example 9] | < 3
3 | CCN(C(=O)c1cnc(C)nc1-c1ccccc1)[C@@H](C)CNc1ncc(C(F)(F)F)cn1 [Example 17] | < 3
4 | CCN(C(=O)c1cccc(F)c1-n1nccn1)[C@@H](C)CNc1ncc(C(F)(F)F)cn1 [Example 18] | < 3

Reference: patent US9884854B2, “N-[(pyrimidinylamino)propanyl]-and N[(pyrazinylamino)proppanyl]arylcarboxamides” (Boehringer Ingelheim International GmbH, priority 2016, dated 2018)
